# Measurements as given in patent US8349835B2, “Aromatic ring fused triazine derivatives and uses thereof” (Shenyang Pharmaceutical University, priority 2008, dated 2013).
# Tests used:
# VEGFR-2 = VEGFR-2 (Homo sapiens, UniProt P35968); test: VEGFR-2 inhibition rate test (kinase assay kit, colorimetric ELISA); details: concentration not given
# [1] = tested on: chorioallantoic membrane vessels; test: Activity test by chick chorioallantoic membrane method; assay type: in vivo; details: 5 uL medicine on cellulose membrane, chick embryo, 2 days
# Protocol: After the shell membrane became wet, tore it open with ophthalmological tweezers so to expose the chorioallantoic membrane. • 6) Added 5 uL of selected medicine to a 0.5×0.5 cm cellulose membrane sterilized by high pressure, then set the membrane on the part of the chorioallantoic membrane with fewer vessels • 7) Closed the window, and put the embryos back into the hatch box to hatch for 2 days. • 8) Opened the transparent tape, and then opened the mixed cellulose membrane lightly with a tweezers. Measured the avascular area and took photographs.
# Rat aortic ring = test: Rat Aortic Ring Assay; assay type: cell-based; details: for Rat Aortic Ring Assay (10 ug/ml), result in words: observed on the sixth day; for inhibition at 10 µg/mL: Rattus norvegicus, 10 ug/ml, compared with blank control, sixth day
# Text: Rat Aortic Ring Assay • 1) 6 week old SD […] (Sprague Dawley) were selected for the experiments. Cleaned abdominal skin with 75% ethanol to disinfect, and then anesthetized the mice with ether, • 2) Carefully removed the abdominal aortas and transferred the aortas to normal saline. Excessive vascular tissues were carefully removed with scissors. • 3) The aortas were rinsed with normal saline until no blood stain remained. • 4) Sectioned the aortas into one millimeter depth arterial slices with ophthalmological scissors. • 5) Add 50 μL pre-thawed Matrigel to each well of the pre-cooled 96 well cell culture plates, and embedded the ring-shaped mouse aortas in collagen gel. • 6) Incubated for 60 minutes at 37° C. to solidificate the gel. • 7) Added DMEM culture solution containing 10% FBS, along with different concentrations of the selected compounds into the wells and cultured in the incubator. Every compound was repeated in no less than 3 wells. • 8) Replaced with the fresh medium and changed the medicine once on the third day. • 9) Took out the pates on the sixth day, and observed the vascular growth with Microscope (OLYMPUS, DP70, Japan) and took photographs(×100). Randomly chose 3 arterial rings to photograph and calculated the area covered by micro-vascular with Image Pro Plus software. The inhibition rate is calculated as:
# [formula] • Evaluation criteria: ⋆inhibition rate[…]; ⋆⋆inhibition rate 60-90%; ⋆⋆⋆inhibition rate>90%.
# [2] = tested on: Microvascular Endothelial Cells (MVEC); test: MTT growth inhibition of MVEC; assay type: cell-based; details: Endothelial cell, 96 h, 4 days culture with drug, read-out: IG50 on inhibiting growth of MVEC
# Protocol: In Vitro Anti-Tumor Activity Test
# Put cell suspension into centrifugal tubes with a pipette under sterile conditions, then the cell suspension was centrifuged for 3 minutes at 1300 rpm. Discarded the supernatant lightly and added fresh culture medium. Mixed the cells by pipetting, then transferred the cells into culture flasks, and put them into the CO2 incubator. Changed the culture medium once after 24 hours.
# Human prostate cancer cells (DU145, PC-3) were cultured in a medium containing RPMI1640 basic medium supplemented with 10% heat-inactivated FBS, 100 IU/mL penicillin, 100 μg/mL streptomycin and 1 mmol/L L-glutamine. Human breast carcinoma cells (T47D, MDA-MB231) were cultured in a medium containing RPM11640 basic medium supplemented with 10% heat-inactivated FBS, 5 μg/mL insulin, 100 IU/mL penicillin, 100 μg/mL streptomycin and 1 mmol/L L-glutamine. Human breast carcinoma cells (MCF-7) were cultured in a medium containing DMEM basic medium supplemented with 10% heat-inactivated FBS, 5 μg/mL insulin, 100 IU/mL penicillin, 100 μg/mL streptomycin and […]. Murine Lewis lung cancer cells (LL/2), murine melanoma cells (B16FD) and Microvascular Endothelial Cells (MVEC) were cultured in a medium containing DMEM basic medium supplemented with 10% heat-inactivated FBS, 4.5 g/L glucose, 1.5 g/L NaHCO3, 100 IU/mL penicillin, 100 μg/mL streptomycin and 4 mmol/L L-glutamine. All these cell lines were incubated at 37° C. biochemical incubator with 5% CO2 saturated humidity.
# After resuscitation, the cells were passed for 2-3 generations till they became stable, then they were used for the experiments. Each passage was based on the standard that all cells were spread over the bottoms of culture flasks.
# Cells were digested off from the bottoms of culture flasks with trypsin (0.25%). The cell dissociation buffer was transferred into centrifuge tubes, added medium to stop the digestion, and centrifuged for 3 minutes at 1300 rpm. Discarded the supernatant lightly and added fresh culture medium (5 mL). Mixed the cells by pipetting, then added 10 μL of the cell suspension into the cell counting plate, and adjusted the cell concentration to 2×10^4 cells/mL. Added 100 μL of the cell suspension to all wells on the 96 well plates, except A1 well as the blank control. Put the plates into the biochemical incubator for 24 hours and to make sure the cells grew along the walls.
# The drugs were dissolved in 80 mmol/L DMSO first, and then diluted the drugs with ethanol to 8 mmol/L. The solution was further diluted with the culture medium to different concentrations as 160 μmol/L, 120 μmol/L, 80 μmol/L, 40 μmol/L, 20 μmol/L and 10 μmol/L. Added 100 μL of the drug solution to each well on the 96 well plates. Therefore, the final concentrations of the drugs that were added to the cells were 80 μmol/L, 40 μmol/L, 20 μmol/L, 10 μmol/L and 5 μmol/L, and each concentration were repeated in three parallel wells. Put the culture plates into the biochemical incubator to culture continuously for 4 days.
# Added 50 μL MTT liquids (2 mg/mL) into each well, put the culture plates into the biochemical incubator for 4 h, discarded MTT liquids (TCC), added 200 μL DMSO, then oscillated for 10 minutes on the magnetic oscillator to make sure that the survived cells and the reaction product of MTT were fully dissolved. Detected and recorded the absorbance (OD) values of each well at the wavelength of 570 nm using the microplate reader. The OD values of cells without tested drugs were used as control. The cell growth inhibition rates under each drug concentration were calculated by the following formula. […] Inhibition rate of growth(%)=(1−The absorbance(OD)of cells with tested drugs/The absorbance(OD)of the blank control group)×100%
# The absorbance (OD) of cells with tested drugs: OD value is measured with the test drugs.
# The absorbance (OD) of the blank control group: OD value is measured without the test drugs. […]
# Sequence of VEGFR-2 (P35968 20-1356): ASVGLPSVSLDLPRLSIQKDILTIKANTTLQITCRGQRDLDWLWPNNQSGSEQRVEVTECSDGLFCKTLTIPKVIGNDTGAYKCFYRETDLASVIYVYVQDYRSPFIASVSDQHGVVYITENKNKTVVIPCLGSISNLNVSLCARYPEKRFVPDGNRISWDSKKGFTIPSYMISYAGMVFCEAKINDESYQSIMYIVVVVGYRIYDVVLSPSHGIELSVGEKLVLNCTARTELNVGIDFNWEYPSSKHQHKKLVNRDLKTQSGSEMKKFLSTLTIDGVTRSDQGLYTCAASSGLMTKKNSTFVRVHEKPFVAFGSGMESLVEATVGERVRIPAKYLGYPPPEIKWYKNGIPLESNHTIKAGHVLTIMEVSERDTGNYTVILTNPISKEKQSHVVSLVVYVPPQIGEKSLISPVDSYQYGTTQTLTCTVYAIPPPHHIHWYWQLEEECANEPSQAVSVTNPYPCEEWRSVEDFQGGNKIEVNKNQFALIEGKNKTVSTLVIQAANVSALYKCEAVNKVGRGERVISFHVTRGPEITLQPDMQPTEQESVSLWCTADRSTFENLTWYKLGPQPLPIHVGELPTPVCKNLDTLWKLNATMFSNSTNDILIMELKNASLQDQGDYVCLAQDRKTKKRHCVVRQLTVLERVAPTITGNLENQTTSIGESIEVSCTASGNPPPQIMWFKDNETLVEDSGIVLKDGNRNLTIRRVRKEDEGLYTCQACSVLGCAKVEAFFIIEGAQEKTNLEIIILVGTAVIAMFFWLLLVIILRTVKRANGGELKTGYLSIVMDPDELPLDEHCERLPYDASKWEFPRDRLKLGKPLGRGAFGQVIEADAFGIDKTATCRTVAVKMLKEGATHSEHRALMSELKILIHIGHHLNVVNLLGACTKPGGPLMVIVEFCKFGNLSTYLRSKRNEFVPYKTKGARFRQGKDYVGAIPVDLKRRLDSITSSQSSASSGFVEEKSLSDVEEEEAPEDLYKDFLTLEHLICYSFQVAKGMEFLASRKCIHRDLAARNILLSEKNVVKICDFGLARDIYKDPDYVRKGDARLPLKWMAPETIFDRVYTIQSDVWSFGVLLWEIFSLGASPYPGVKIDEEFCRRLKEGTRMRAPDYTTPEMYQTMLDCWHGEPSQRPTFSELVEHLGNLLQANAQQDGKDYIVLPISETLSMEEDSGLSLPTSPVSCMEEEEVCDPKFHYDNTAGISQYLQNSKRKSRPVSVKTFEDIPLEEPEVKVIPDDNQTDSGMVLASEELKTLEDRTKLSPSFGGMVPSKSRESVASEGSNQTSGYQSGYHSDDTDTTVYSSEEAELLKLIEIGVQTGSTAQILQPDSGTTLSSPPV
SMILES,Kinase inhibition rate (VEGFR-2) (VEGFR-2),The inhibitory effect on the growth of chorioallantoic membrane vessels [1],"Rat Aortic Ring Assay (10 ug/ml), result in words (Rat aortic ring)",IC50 [2],inhibition at 10 µg/mL (Rat aortic ring)
"Clc1cccc(Nc2nnnc3ccccc23)c1 [Example 4, 4-(3-chloroanilino)-benzo[d][1,2,3]triazine]",12.83,The vascular growth is abundant,,,
"CCCCOc1cc2nnnc(Nc3cc(Cl)cc(Cl)c3)c2cc1OC [Example 13, 6-methoxy-7-n-butoxy-4-(3,5-dichloroanilino)-benzo[d][1,2,3]triazine]",−9.89,,No significant inhibition,3.17 µM,
"CCCCOc1cc2nnnc(Nc3ccc(Cl)c(Cl)c3)c2cc1OC [Example 15, 6-methoxy-7-n-butoxy-4-(3,4-dichloroanilino)-benzo[d][1,2,3]triazine]",,,,15.5 µM,~30%
"CCCCOc1cc2nnnc(Nc3ccc(OC(F)(F)F)cc3)c2cc1OC [Example 20, 6-methoxy-7-n-butoxy-4-(4-trifluoromethoxyanilino)-benzo[d][1,2,3]triazine]",,"One of the two samples exhibits significant inhibition, and the other","Cell proliferation and migration were not significantly affected,",,
"CCOc1cc2nnnc(Nc3cccc(C(F)(F)F)c3)c2cc1OC [Example 34, 6-methoxy-7-ethoxy-4-(3-trifluoromethylanilino)-benzo[d][1,2,3]triazine]",,"One of the two samples exhibits significant inhibition zone, and the other",,,> 80%
"CCOc1cc2nnnc(Nc3cccc(Cl)c3)c2cc1OC [Example 38, 6-methoxy-7-ethoxy-4-(3-chloroanilino)-benzo[d][1,2,3]triazine]",,One embryo is dead.,No significant inhibition,,
"CCOc1cc2nnnc(Nc3ccccc3F)c2cc1OC [Example 41, 6-methoxy-7-ethoxy-4-(2-fluoroanilino)-benzo[d][1,2,3]triazine]",,"One embryo is dead, and the other exhibits no significant inhibition",No significant inhibition,,
"CCOc1cc2nnnc(Nc3cccc(Br)c3)c2cc1OC [Example 42, 6-methoxy-7-ethoxy-4-(3-bromoanilino)-benzo[d][1,2,3]triazine]",,One of the two samples exhibits inhibition,,,~40%
"CCCCCOc1cc2nnnc(Nc3ccc(F)cc3)c2cc1OC [Example 59, 6-methoxy-7-pentyloxy-4-(4-fluoroanilino)-benzo[d][1,2,3]triazine]",,"The vessels become fewer, but not thinner. The medicine precipitates out.",No significant inhibition,,
"COc1cc2c(Nc3ccc(OC(F)(F)F)cc3)nnnc2cc1OCCCCl [Example 70, 6-methoxy-7-chloropropoxy-4-(4-trifluoromethoxyanilino)-benzo[d][1,2,3]triazine]",16.65,,,23.2 µM,> 50%
"COc1cc2c(Nc3ccc(C)cc3)nnnc2cc1OCCCCl [Example 77, 6-methoxy-7-chloropropoxy-4-(4-methylanilino)-benzo[d][1,2,3]triazine]",,,"Micro-vascular growth was significantly inhibited, affecting cell",17.1 µM,
"Clc1ccc2nnnc(Nc3ccccc3)c2n1 [Example 78, 6-chloro-4-anilino-pyrido[3,2-d][1,2,3]triazine]",15.87,,"No significant inhibition in the previous 3 days, but vascular ring",10.7 µM,
"Fc1cc(Nc2nnnc3ccc(Cl)nc23)ccc1Br [Example 79, 6-chloro-4-(3-fluoro-4-bromoanilino)-pyrido[3,2-d][1,2,3]-triazine]",,,"Almost complete inhibition (10 μg/mL), vascular ring was dead",9.56 µM,
"Clc1cc(Cl)cc(Nc2nnnc3ccc(Cl)nc23)c1 [Example 80, 6-chloro-4-(3,5-dichloroanilino)pyrido[3,2-d][1,2,3]triazine]",,,"Almost complete inhibition (10 μg/mL), vascular ring was dead.",7.93 µM,
"Fc1cc(F)cc(Nc2nnnc3ccc(Cl)nc23)c1 [Example 81, 6-chloro-4-(3,5-difluoroanilino)pyrido[3,2-d][1,2,3]triazine]",−6.44,,"Almost complete inhibition (10 μg/mL), vascular ring was dead.",10.3 µM,
"Clc1ccc2nnnc(Nc3ccc(Cl)c(Cl)c3)c2n1 [Example 82, 6-chloro-4-(3,4-dichloroanilino)pyrido[3,2-d][1,2,3]triazine]",,,,9.19 µM,> 80%
"Clc1ccc(Nc2nnnc3ncc(Cl)cc23)cc1 [Example 83, 6-chloro-4-(4-chloroanilino)pyrido[3,2][1,2,3]triazine]",23.56,,No significant inhibition,10.5 µM,
"FC(F)(F)c1ccc(Nc2nnnc3ccc(Cl)nc23)cc1 [Example 85, 6-chloro-4-(4-trifluoromethylanilino)pyrido[3,2-d][1,2,3]triazine]",,,No significant inhibition,8.06 µM,
"FC(F)(F)Oc1ccc(Nc2nnnc3ccc(Cl)nc23)cc1 [Example 87, 6-chloro-4-(4-trifluoromethoxyanilino)pyrido[3,2-d][1,2,3]triazine]",,,"Almost complete inhibition (10 μg/mL), vascular ring was dead",11.5 µM,
"Clc1cccc(Nc2nnnc3ccc(Cl)nc23)c1 [Example 88, 6-chloro-4-(3-chloroanilino)pyrido[3,2-d][1,2,3]triazine]",2.39,,"Almost complete inhibition (10 μg/mL), vascular ring was dead",12.7 µM,
"Fc1ccccc1Nc1nnnc2ccc(Cl)nc12 [Example 91, 6-chloro-4-(2-fluoroanilino)pyrido[3,2-d][1,2,3]triazine]",,,No significant inhibition,10.8 µM,
